Results on three compounds are retold here after patent publication US20090176726A1, “METHODS FOR TREATING MITF-RELATED DISORDERS” (priority 2005, published 2009).

Where two headings read alike, the source gives them in different places.

Test [1] deals with HIF-1α. Type of test: cell-based, human.
Test [2] concerns MITF. Description: MITF protein level in human melanoma cells (UACC62). Type of test: cell-based.
The test system of test [3] is MITF mRNA. It counts as cell-based, human.
In test [4] the test system is MITF. It counts as cell-based, human.
Test [5] deals with FoxD1. Type of test: cell-based, human.
Test [6] has as its system HIF-1α. Description: HIF-1α protein level in human melanoma cells (UACC62). It counts as cell-based.
Test [7] has as its system MITF. The test is described as follows: MITF expression in UACC62 cells transfected with constitutive MITF vector or empty vector. It counts as cell-based, human. To be noted: increasing levels of DMOG. An excerpt:
(§1) Human melanoma cells (UACC62) were transfected with a vector that constitutively expresses MITF off a promoter different from its natural promoter. As a control, other cells were transfected with empty vector. Both cell types were exposed to increasing levels of DMOG, which mimics certain aspects of hypoxia in upregulating HIF.

The subject of test [8] is Human melanoma cells (UACC62). Description: Cell death of transfected UACC62 cells exposed to DMOG. It counts as cell-based.
Excerpt: as §1

The mark [9] stands for this setting: UACC62 cells, 200 μM DFO, 0, 2, 6, 8 and 24 hrs, FIG. 4B.
Setting [10] is: UACC62 cells transformed with empty vector.

Turning to `[Cl-].[Cl-].[Co+2]` [CoCl2], the “level of HIF-1α” value in test [1] was “increased as CoCl2 was increased”. Besides, in test [2], the MITF protein levels entry is “decreased”, the “downregulation of MITF by CoCl2” value is listed as “substantially blocked” and the “level of MITF protein” value is “decreased”. Besides, the “MITF mRNA levels” value in test [3] was “decreased”. Moreover, the “level of MITF protein” value in test [4] is “decreased as CoCl2 was increased”. Besides, the “FoxD1 expression (microarray)” value in test [5] is “upregulated”. Besides, in test [6], the HIF-1α levels result is “increased” and the “level of HIF-1α protein” value was “increased”.

`CC(=O)N(O)CCCCCNC(=O)CCC(=O)N(O)CCCCCNC(=O)CCC(=O)N(O)CCCCCN` [DFO, desferrioxamine]: the MITF protein levels entry in test [2] (setting [9]) is given as “decreased steadily”. Also, the HIF-1α protein levels result in test [6] (setting [9]) is reported as “increased steadily”.

With `COC(=O)CNC(=O)C(=O)OC` [DMOG, dimethyl-oxalylglycine], the “level of MITF protein” value in test [2] (UACC62 cells, 1 mM DMOG, 0, 2, 6, 8 and 24 hrs, FIG. 4A) is given as “decreased”. Moreover, the MITF expression result in test [7] (setting [10]) is on record as “significant decrease”; in test [7] (UACC62 cells transformed with vector that constitutively expresses MITF), “did not exhibit a detectable decrease”. The cell death result is recorded as “protected from cell death” in test [8] (UACC62 cells that constitutively express MITF, at DMOG levels lethal to empty vector cells) and “lethal” in test [8] (setting [10]). Besides, the “HIF-1α levels at 24 hours” value in test [6] (UACC62 cells, 1 mM DMOG, 24 hours compared with 8 hours, FIG. 4A) was “somewhat lower than at 8 hours”. Also, in test [6] (UACC62 cells, 1 mM DMOG, FIG. 4A), the “HIF-1α protein level, 2 to 8 hours” value is “increased steadily”.
